11 compounds from ChEMBL document CHEMBL1201862, “PubChem BioAssay data set” (2004) can be followed below.

Test systems include 786-0; MDA-MB-231; HL-60; NCI/ADR-RES; RXF 393; UACC-62; MDA-N; OVCAR-5; SF-268; EKVX; UO-31; SK-MEL-28; NCI-H460; K562; OVCAR-3; MDA-MB-435; A549; SNB-75; CCRF-CEM; SR.
Experiment in all cases: DTP human tumour cell line panel, 48 h

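Growth conditions: 96-well plates. Treatment: test compound, 48 hours, 5 concentrations. Analysis: linear interpolation between bracketing concentrations; unreached endpoints set to highest concentration. GI50 is the concentration that inhibits growth by half.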 Activity calls are given as the source filed them. Rule as the data show it: active = GI50 up to about 1.1 µM and inactive = higher.

For the compound `O=C(O)CCC(=O)Nc1ccc2ccccc2c1`, the GI50 in the experiment on 786-0, in the experiment on MDA-MB-231, in the experiment with HL-60, in the experiment on NCI/ADR-RES, with RXF 393 and with UACC-62 was > 100 µM (inactive) in each case. Moreover, the GI50 with MDA-N, in the experiment on OVCAR-5, in the experiment with SF-268, with EKVX, in the experiment on UO-31 and with SK-MEL-28 was > 100 µM (inactive) in each case. Further, the GI50 in the experiment with NCI-H460, in the experiment with K562, in the experiment with OVCAR-3, with MDA-MB-435, in the experiment with A549 and in the experiment on SNB-75 was > 100 µM (inactive) in each case. In the experiment with CCRF-CEM, the GI50 was > 100 µM (inactive).

As for `COc1ccc(NC(=S)c2ccoc2C)cc1CC(=O)OC(C)C`, the GI50 in the experiment on 786-0 is > 100 µM (inactive); in the experiment with MDA-MB-231, 81.5 µM (inactive); in the experiment on HL-60, 22.1 µM (inactive); in the experiment with NCI/ADR-RES, 17.5 µM (inactive); in the experiment on UACC-62 it was 26 µM (inactive); in the experiment with MDA-N, 31 µM (inactive). Further, the GI50 with OVCAR-5 is > 100 µM (inactive); with SF-268, 43.4 µM (inactive); with EKVX it was 25.1 µM (inactive); in the experiment on UO-31, 30.6 µM (inactive); in the experiment with SK-MEL-28, 34.4 µM (inactive); in the experiment on NCI-H460, 31.8 µM (inactive). Also, the GI50 is 34.8 µM (inactive) in the experiment with K562; 26.5 µM (inactive) with OVCAR-3; 46.2 µM (inactive) with MDA-MB-435; 26.4 µM (inactive) with A549; 15.7 µM (inactive) with SNB-75; 43.9 µM (inactive) in the experiment on CCRF-CEM.

With `Cc1c2c(OCC3CCCCO3)nn(C)c(=O)c2c(C)n1-c1ccccc1` (configuration not stated), the GI50 is 17.2 µM (inactive) in the experiment with 786-0; 17.7 µM (inactive) in the experiment with MDA-MB-231; 21.3 µM (inactive) in the experiment on NCI/ADR-RES; 16 µM (inactive) in the experiment with RXF 393; 16.4 µM (inactive) with UACC-62; 19.5 µM (inactive) in the experiment with MDA-N. Also, the GI50 is 17.4 µM (inactive) in the experiment on OVCAR-5; 16.1 µM (inactive) in the experiment on SF-268; 17.1 µM (inactive) with EKVX; 16.6 µM (inactive) with UO-31; 14.7 µM (inactive) in the experiment on NCI-H460; 38.8 µM (inactive) in the experiment with K562. Also, the GI50 with OVCAR-3 is 16.7 µM (inactive); in the experiment with MDA-MB-435, 18.3 µM (inactive); in the experiment on A549, 17.5 µM (inactive); in the experiment with SNB-75, 13 µM (inactive).

Turning to `COc1cc(OC)c(/C=C/c2cnc3ccccc3n2)c(OC)c1`, the GI50 in the experiment with 786-0, with MDA-MB-231, in the experiment on HL-60, with NCI/ADR-RES, in the experiment on RXF 393 and in the experiment with UACC-62 was > 10 µM (inactive) in each case. Besides, the GI50 is > 10 µM (inactive) in the experiment with MDA-N; > 10 µM (inactive) with OVCAR-5; > 10 µM (inactive) with SF-268; > 10 µM (inactive) in the experiment on EKVX; 0.0561 µM (active) with UO-31; > 10 µM (inactive) with SK-MEL-28. The GI50 with NCI-H460, with K562, in the experiment on OVCAR-3, in the experiment with MDA-MB-435, in the experiment on A549 and in the experiment on SNB-75 was > 10 µM (inactive) in each case. Also, the GI50 in the experiment with CCRF-CEM is > 10 µM (inactive).

For `O=P1(c2ccccc2)c2ccccc2CCc2ccccc21`, the GI50 in the experiment with 786-0 was > 100 µM (inactive); in the experiment on MDA-MB-231 it was 80.7 µM (inactive); in the experiment on HL-60, 16.6 µM (inactive); in the experiment on RXF 393, 44.4 µM (inactive); in the experiment with UACC-62, 78.7 µM (inactive); with MDA-N it was 38.7 µM (inactive). For the same compound, the GI50 with SF-268 was 95.9 µM (inactive); in the experiment on EKVX, 66.4 µM (inactive); in the experiment with UO-31, 53.3 µM (inactive); in the experiment on SK-MEL-28 it was > 100 µM (inactive); in the experiment with OVCAR-3, 40.8 µM (inactive); in the experiment with MDA-MB-435, 57.7 µM (inactive). Also, the values for the GI50 in the experiment with A549, with SNB-75 and with CCRF-CEM were 86.5 µM (inactive), 43.8 µM (inactive) and 47.9 µM (inactive), respectively.

`COC(=O)C1c2cc3c(cc2C(OC2OC(C)C(OC)C(C)(OC)C2OC)CC1(C)O)C(=O)c1c(O)cc2c(c1C3=O)OC1OC2(C)C(O)C([N+](C)(C)[O-])C1O` (configuration not stated): the GI50 was 0.111 µM (active) in the experiment on 786-0; 0.469 µM (active) with MDA-MB-231; 0.286 µM (active) in the experiment with HL-60; 0.179 µM (active) with RXF 393; 0.0509 µM (active) with UACC-62; 0.305 µM (active) with SR. In addition, the GI50 with MDA-N was 0.0512 µM (active); in the experiment with OVCAR-5, 1.48 µM (inactive); with SF-268 it was 0.0891 µM (active); with EKVX, 0.658 µM (active); in the experiment with UO-31, 1.19 µM (inactive); with SK-MEL-28, 0.195 µM (active). The GI50 in the experiment on NCI-H460 is 0.0644 µM (active); in the experiment on K562, 0.0324 µM (active); in the experiment with OVCAR-3, 0.658 µM (active); in the experiment on MDA-MB-435 it was 0.158 µM (active); with A549, 0.227 µM (active); with SNB-75, 0.179 µM (active). The GI50 with CCRF-CEM is 0.0504 µM (active).

Turning to `COc1ccc(/C=C2\CC3C4CC=C5C[C@@H](N6CCCC6)CC[C@]5(C)C4CC[C@]3(C)[C@H]2O)cc1OC` (some centres not stated), the GI50 in the experiment on 786-0 was 3.77 µM (inactive); in the experiment on MDA-MB-231, 7.85 µM (inactive); with HL-60, 14.4 µM (inactive); with NCI/ADR-RES, 9.02 µM (inactive); in the experiment on RXF 393 it was 8.77 µM (inactive); in the experiment with UACC-62, 8.97 µM (inactive). Besides, the GI50 was 7.55 µM (inactive) in the experiment with MDA-N; 10.2 µM (inactive) in the experiment with OVCAR-5; 10.4 µM (inactive) in the experiment with SF-268; 8.79 µM (inactive) with EKVX; 9.27 µM (inactive) in the experiment with UO-31; 8.51 µM (inactive) with SK-MEL-28. The GI50 was 9.16 µM (inactive) with NCI-H460; 8.09 µM (inactive) in the experiment with K562; 8.32 µM (inactive) in the experiment on OVCAR-3; 6.7 µM (inactive) in the experiment on MDA-MB-435; 9.46 µM (inactive) with A549; 12.2 µM (inactive) in the experiment with SNB-75. The GI50 with CCRF-CEM was 8.17 µM (inactive).

In the case of `CS(=O)(=O)c1nc(-c2cc3c(c(S(C)(=O)=O)n2)CCC3)cc2c1CCCC2`, the GI50 was 35.3 µM (inactive) in the experiment on 786-0; 38.9 µM (inactive) in the experiment on MDA-MB-231; > 100 µM (inactive) in the experiment with HL-60; 48.6 µM (inactive) with NCI/ADR-RES; 15.6 µM (inactive) in the experiment with RXF 393; 14.4 µM (inactive) in the experiment with UACC-62. For the same compound, the GI50 with MDA-N is > 100 µM (inactive); in the experiment on OVCAR-5, > 100 µM (inactive); in the experiment with SF-268, 7.76 µM (inactive); in the experiment with EKVX, > 100 µM (inactive); with UO-31, 7.71 µM (inactive); in the experiment with SK-MEL-28 it was > 100 µM (inactive). Further, the GI50 with K562 is > 100 µM (inactive); in the experiment with OVCAR-3 it was > 100 µM (inactive); in the experiment with MDA-MB-435, > 100 µM (inactive); with A549 it was > 100 µM (inactive); with SNB-75 it was 8.63 µM (inactive); in the experiment on CCRF-CEM it was > 100 µM (inactive).

Turning to `C1=C2C3=[N+](CCCC3)CC2Cc2ccsc21` (configuration not stated), the GI50 is > 100 µM (inactive) in the experiment on 786-0; > 100 µM (inactive) with MDA-MB-231; 76.2 µM (inactive) with HL-60; > 100 µM (inactive) in the experiment on NCI/ADR-RES; 65 µM (inactive) in the experiment on RXF 393; > 100 µM (inactive) with UACC-62. In addition, the GI50 with MDA-N was > 100 µM (inactive); with OVCAR-5, > 100 µM (inactive); with SF-268 it was > 100 µM (inactive); in the experiment with EKVX, 52.6 µM (inactive); with UO-31, > 100 µM (inactive); with SK-MEL-28, > 100 µM (inactive). Also, the GI50 in the experiment on NCI-H460 was 38 µM (inactive); with K562, > 100 µM (inactive); in the experiment with OVCAR-3, 84.1 µM (inactive); in the experiment on MDA-MB-435, > 100 µM (inactive); in the experiment on A549, 25 µM (inactive); in the experiment on SNB-75, 93.8 µM (inactive). The GI50 with CCRF-CEM is > 100 µM (inactive).

As for `CC(C)(C)C(=O)Nc1c(C=O)ccc2[nH]cnc12`, the GI50 with 786-0, in the experiment with MDA-MB-231, in the experiment with NCI/ADR-RES, in the experiment on RXF 393, in the experiment on MDA-N and in the experiment with OVCAR-5 was > 100 µM (inactive) each time. Also, the GI50 is > 100 µM (inactive) with SF-268; > 100 µM (inactive) in the experiment on EKVX; > 100 µM (inactive) in the experiment on UO-31; > 100 µM (inactive) in the experiment with SK-MEL-28; > 100 µM (inactive) with NCI-H460; 42.8 µM (inactive) in the experiment on K562. Besides, the GI50 in the experiment with OVCAR-3 is 80.9 µM (inactive); in the experiment with MDA-MB-435, > 100 µM (inactive); in the experiment on A549, > 100 µM (inactive); in the experiment with SNB-75, > 100 µM (inactive); with CCRF-CEM it was 33.3 µM (inactive).

`COC(=O)[C@H](Cc1c[nH]c2ccccc12)NP(=O)(O)OC[C@H]1O[C@@H](n2cc(C)c(=O)[nH]c2=O)C[C@@H]1N=[N+]=[N-]`: the GI50 in the experiment with 786-0, in the experiment on MDA-MB-231, in the experiment on HL-60, in the experiment on NCI/ADR-RES, in the experiment on RXF 393 and in the experiment on UACC-62 was > 100 µM (inactive) throughout. Also, the GI50 in the experiment on MDA-N, with OVCAR-5, in the experiment on SF-268, in the experiment with EKVX, in the experiment on UO-31 and with NCI-H460 was > 100 µM (inactive) in each case. In addition, the GI50 in the experiment on K562, with OVCAR-3, in the experiment on MDA-MB-435, with A549, with SNB-75 and with CCRF-CEM was > 100 µM (inactive) throughout.
